In article PMC9017309, “Triazolopyrimidines Target Aerobic Respiration in Mycobacterium tuberculosis” (Antimicrobial Agents and Chemotherapy, 2022):
Values after ≈ are worked out from the molar mass of the structure shown. Like-named read-outs stand apart in the source and are kept apart here.

Legend:
[1] = test system: M. tuberculosis H37Rv-LP DprE1 C387S; format: cell-based, Mycobacterium tuberculosis
[2] = test system: M. tuberculosis H37Rv-LP MmpL3 F255L; format: cell-based, Mycobacterium tuberculosis
[3] = test system: M. tuberculosis H37Rv-LP QcrB A396T; format: cell-based, Mycobacterium tuberculosis
[4] = test system: M. tuberculosis H37Rv ATCC 26518 QcrBT313I; format: cell-based, Mycobacterium tuberculosis
[5] = test system: M. tuberculosis H37Rv ATCC 26518 QcrBM342T; format: cell-based, Mycobacterium tuberculosis
[6] = test system: M. tuberculosis H37Rv ATCC 27294 cydKO; assay: microbe, parasite or virus in culture; format: cell-based; settings: Mycobacterium tuberculosis, 120 h, read-out: MIC, H37Rv ATCC 27294 cydKO
[7] = test system: M. tuberculosis resistant isolates LP-0499227-RM; format: cell-based, Mycobacterium tuberculosis
[8] = test system: M. tuberculosis resistant isolates LP-0497553-RM; assay: microbe, parasite or virus in culture; format: cell-based, Mycobacterium tuberculosis; settings: for MIC: Mycobacterium tuberculosis, 504 h, 24-well agar plates, 3 weeks

Q: Which “MIC, DprE1 C387S” value [1] does the source give for `COc1ccc(CCNc2cc(-c3ccccc3)nc3ncnn23)cc1` [TPN-0006218] here?
A: 0.94 ± 0.67 µM (≈ 0.325 µg/mL)

Q: What about the “MIC, MmpL3 F255L” value [2] of the same molecule?
A: 2 ± 0.99 µM (≈ 0.691 µg/mL)

Q: What about the “MIC, QcrB A396T” value [3] of the same molecule?
A: 6.8 ± 2.8 µM (≈ 2.35 µg/mL)

Q: Which results are given for `FC(F)(F)c1ccc(CCNc2cc(-c3ccccc3)nc3ncnn23)cc1` [TPN-0006243]?
A: MIC, DprE1 C387S [1]: 0.95 ± 0.29 µM (≈ 0.364 µg/mL); MIC, MmpL3 F255L [2]: 2.7 ± 2.4 µM (≈ 1.04 µg/mL); MIC, QcrB A396T [3]: 5.7 ± 2.1 µM (≈ 2.19 µg/mL); MIC, H37Rv ATCC 26518 QcrBT313I [4]: >20 µM; MIC, H37Rv ATCC 26518 QcrBM342T [5]: >20 µM; MIC [6]: < 0.39 µM

Q: What does the source list for `FC(F)(F)c1ccc(CCNc2cc(-c3ccccn3)nc3ncnn23)cc1` [TPN-0006267]?
A: MIC, DprE1 C387S [1]: 0.66 ± 0.01 µM (≈ 0.254 µg/mL); MIC, MmpL3 F255L [2]: 1.8 ± 0.57 µM (≈ 0.692 µg/mL); MIC, QcrB A396T [3]: 5.9 ± 3.5 µM (≈ 2.27 µg/mL); MIC, H37Rv ATCC 26518 QcrBT313I [4]: >20 µM; MIC, H37Rv ATCC 26518 QcrBM342T [5]: 10 µM (≈ 3.84 µg/mL); MIC on solid medium, LP-0499227-RM1 [7]: >100 µM; MIC on solid medium, LP-0499227-RM2 [7]: >100 µM; MIC on solid medium, LP-0499227-RM3 [7]: >100 µM; MIC on solid medium, LP-0499227-RM4 [7]: 25 µM (≈ 9.61 µg/mL); MIC on solid medium, LP-0499227-RM7 [7]: >100 µM

Q: Which results are given for `Cc1ccc(CCNc2cc(-c3ccccc3)nc3ncnn23)cc1` [TPN-0006245]?
A: MIC, DprE1 C387S [1]: 0.92 ± 0.3 µM (≈ 0.303 µg/mL); MIC, MmpL3 F255L [2]: 2 ± 0.07 µM (≈ 0.659 µg/mL); MIC, QcrB A396T [3]: 5.6 ± 2.5 µM (≈ 1.84 µg/mL); MIC, H37Rv ATCC 26518 QcrBT313I [4]: >20 µM; MIC, H37Rv ATCC 26518 QcrBM342T [5]: >20 µM

Q: What does the source list for `COc1ccc(CCNc2cc(-c3ccccn3)nc3ncnn23)cc1` [TPN-0006239]?
A: MIC, DprE1 C387S [1]: 0.42 ± 0.07 µM (≈ 0.145 µg/mL); MIC, MmpL3 F255L [2]: 0.86 ± 0.21 µM (≈ 0.298 µg/mL); MIC, QcrB A396T [3]: 3.4 ± 0.28 µM (≈ 1.18 µg/mL); MIC, H37Rv ATCC 26518 QcrBT313I [4]: >20 µM; MIC, H37Rv ATCC 26518 QcrBM342T [5]: 11 µM (≈ 3.81 µg/mL); MIC [6]: 0.13 ± 0.007 µM (≈ 0.045 µg/mL); MIC on solid medium, LP-0497553-RM1 [8]: 25 µM (≈ 8.66 µg/mL); MIC on solid medium, LP-0497553-RM2 [8]: 25 µM (≈ 8.66 µg/mL); MIC on solid medium, LP-0497553-RM4 [8]: 50 µM (≈ 17.3 µg/mL); MIC on solid medium, LP-0497553-RM5 [8]: 50 µM (≈ 17.3 µg/mL); MIC on solid medium, LP-0497553-RM10 [8]: 50 µM (≈ 17.3 µg/mL); MIC on solid medium, LP-0497553-RM11 [8]: 50 µM (≈ 17.3 µg/mL); MIC on solid medium, LP-0497553-RM15 [8]: 50 µM (≈ 17.3 µg/mL); MIC ([8]; read-out: MIC on solid medium, LP-0497553-RM14): 50 µM (≈ 17.3 µg/mL); MIC ([8]; read-out: MIC on solid medium, LP-0497553-RM23): 50 µM (≈ 17.3 µg/mL)
